The target of one data set is E. coli β-glucuronidase (Escherichia coli, UniProt P05804). Nature of the data set: cleavage of compound 22 by β-glucuronidase in βG buffer, HPLC. It is filed as biochemical. The conditions noted are these: E. coli β-glucuronidase 1 μg/ml, 37° C. The procedure:
The proactive compound can also be tested as to its ability to be cleaved by β-glucuronidase. Specifically, the enzyme and the tested compound are both added to […]. Aliquots are then taken out and evaluated in a similar fashion as described above.
(§1) 20 μl samples made from compounds 22 and 17 (moiety (3) of compound 22) were injected onto a Hypersil column (RP-18, 4.6×250 mm, 5 μm) with 45% methanol and 25 mM phosphate buffer (pH 2.5) as mobile phase at a flow rate of 1 ml/min. Eluted components were detected by fluorescence (excitation: 397 nm, emission: 482 nm) on a Gilson fluorometer. Peak areas were analyzed with Beckman system Gold software. The retention times for compound 17 and compound 22 were 9.5 and 15.8 minutes, respectively.
500 μl of compound 22 (116 μM) in βG buffer (100 mM acetic acid, 50 mM bis-tris, 50 mM triethanolamine, pH 7.0) was incubated with E. coli β-glucuronidase (1 μg/ml) at 37° C. Aliquots (30 μl) withdrawn after 0, 1, 2, 3, and 5 minutes was mixed with 300 μl of ethyl acetate, and acidified by addition of 12 mM phosphoric acid (270 μl). […] The recovery of compounds 22 and 17 from βG buffer […] were about 90% and 80%, respectively. Samples were suspended in 150 μl of mobile phase (45% methanol/25 mM phosphate buffer, pH 2.5) and analyzed by HPLC.

Data set [1] relates to CaSki human cervical carcinoma cells. Briefly: in vitro cytotoxicity: [3H] leucine incorporation (protein synthesis) in CaSki cells.
Method: One way to evaluate the in vitro cytotoxic activities of a proactive compound is by incubating the tested compound with cancerous cells in serum at 37° C. for a certain period of time. After incubation, the cells can be washed and pulsed with [^3 H] leucine in leucine-free medium for another period of time. The radioactivity of trichloroacetic acid-precipitated protein, an indication of the level of protein synthesis of the cell, can then be measured.
CaSki human cervical carcinoma cells were plated overnight in 96-well microtiter plates at 18,000 cells/well. Serial dilution of (i) compound 17 alone, (ii) compound 22 with β-glucuronidase, and (iii) compound 22 alone, in medium containing 5% fetal calf serum were added to cells for 96 hours at 37° C. Cells were subsequently washed once with sterile PBS, and then pulsed for 2 hours with [^3 H] leucine (1 μCi/well) in leucine-free medium. The radioactivity of trichloroacetic acid-precipitated protein was measured in a Beckman LS 6000 series liquid scintillation counter.
Data set [2] in a line: stability of the proactive compound in 95% human plasma at 37° C., HPLC. The class given is in vitro ADME. The conditions noted are these: 145 μM (100 μg/ml), CO2 atmosphere, up to 48 hours, as compared with compound 23. The method, then:
The stability of the proactive compound in serum can be evaluated by using high performance liquid chromatography (HPLC) analysis. […] Aliquots are taken out from the serum solution after every pre-designed period of time, e.g., every other hour. The proteins present in serum are precipitated, acidified, and dried under reduced pressure. The dried compound is dissolved in the HPLC buffer and then analyzed by HPLC.
as §1

E. coli β-glucuronidase, sequence (P05804 whole entry): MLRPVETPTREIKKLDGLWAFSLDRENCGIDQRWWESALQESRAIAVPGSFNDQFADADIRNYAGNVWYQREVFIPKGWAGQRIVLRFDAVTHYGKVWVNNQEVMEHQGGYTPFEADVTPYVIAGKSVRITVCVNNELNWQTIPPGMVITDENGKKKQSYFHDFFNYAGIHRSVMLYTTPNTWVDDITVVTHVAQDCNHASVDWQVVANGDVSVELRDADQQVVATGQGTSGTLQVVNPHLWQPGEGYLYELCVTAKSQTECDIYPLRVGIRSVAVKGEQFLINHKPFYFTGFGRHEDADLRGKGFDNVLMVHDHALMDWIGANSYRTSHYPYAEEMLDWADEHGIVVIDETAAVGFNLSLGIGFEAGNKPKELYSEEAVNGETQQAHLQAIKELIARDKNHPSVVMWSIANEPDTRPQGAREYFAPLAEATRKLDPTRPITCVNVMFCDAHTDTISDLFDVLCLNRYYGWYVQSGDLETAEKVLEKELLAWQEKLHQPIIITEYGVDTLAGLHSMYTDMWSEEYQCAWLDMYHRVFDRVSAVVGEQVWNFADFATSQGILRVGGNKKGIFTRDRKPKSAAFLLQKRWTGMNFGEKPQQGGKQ

In the case of `CC[C@@]1(O)C(=O)OCc2c1cc1n(c2=O)Cc2cc3c(N)cccc3nc2-1` [Compound 17, reference compound], the “absorbance of compound 17 released from compound 22 by β-glucuronidase” value at E. coli β-glucuronidase (0-5 minutes, compound 22 116 μM, βG buffer pH 7.0) was “increased in the first three minutes and reached a steady level after the third minute”. Moreover, in data set [1] (compound alone, 100 nM, 96 hours, 37° C., 5% fetal calf serum), the “decrease of level of protein synthesis” value is given as roughly 4 fold.
In the case of `CC[C@@]1(O)C(=O)OCc2c1cc1n(c2=O)Cc2cc3c(NC(=O)OCc4ccc(O[C@@H]5O[C@H](C(=O)O)[C@@H](O)[C@H](O)[C@H]5O)cc4)cccc3nc2-1` [Compound 22], the “half life in serum” value in data set [2] is recorded as “surprisingly long half life in serum”. In addition, the “conversion into moiety (3) upon activation by glucuronidase” value at E. coli β-glucuronidase is recorded as “converted into its moiety (3), i.e., compound 17”. Also, the “absorbance of compound 22 after incubation with β-glucuronidase” value at E. coli β-glucuronidase (after 3 minutes, compound 22 116 μM, βG buffer pH 7.0) is “almost undetectable”. The “cytotoxicity relative to compound 17” value in data set [1] (compound alone (no β-glucuronidase)) was “much less cytotoxic than compound 17”; in data set [1] (upon activation by glucuronidase) it was “almost as cytotoxic as compound 17”. The “change of level of protein synthesis” value in data set [1] (compound alone (no β-glucuronidase), 100 nM, 96 hours, 37° C., 5% fetal calf serum) was “did not change”. Moreover, the “decrease of level of protein synthesis” value in data set [1] (with β-glucuronidase, 100 nM, 96 hours, 37° C., 5% fetal calf serum) is roughly 4 fold.

The values above are taken from patent US6043367A, “Proactive antitumor compounds” (priority 1998, dated 2000).
